The results in this text go back to patent US11814364B2, “Pyridine N-oxide derivatives useful as factor XIa inhibitors” (Janssen Pharmaceutica NV, priority 2021, dated 2023).

In general, IC50 refers to the point on the concentration scale where inhibition reaches its midpoint.

SMILES strings stand for the structures.

In this test the target is human plasma kallikrein (Homo sapiens, UniProt P03952). In words: Kallikrein inhibition FLINT assay with quenched AMC peptide substrate Z-Gly-Pro-Arg-AMC (end point EP or kinetic KIN reads). The test is classed as biochemical. To be noted: kinetic reads at 5 min intervals over 30 min; read-out: Kallikrein (KIN) IC50. An outline of the steps: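 Enzyme and compound were preincubated 30 min before adding 50 μM AMC substrate in pH 7.5 Tris/NaCl/CaCl2/BSA/CHAPS buffer. AMC release was read at 30 min endpoint or every 5 min.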
human plasma kallikrein, sequence (P03952 391-638 limits assumed): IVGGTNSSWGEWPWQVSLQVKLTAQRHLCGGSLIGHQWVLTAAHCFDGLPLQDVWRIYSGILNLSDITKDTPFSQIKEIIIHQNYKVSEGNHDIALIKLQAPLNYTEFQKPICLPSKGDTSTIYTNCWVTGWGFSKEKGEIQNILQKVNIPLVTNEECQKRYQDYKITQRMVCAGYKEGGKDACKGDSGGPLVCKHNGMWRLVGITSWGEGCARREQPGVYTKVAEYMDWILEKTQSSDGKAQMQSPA
human plasma kallikrein, sequence (P03952 20-390 partner limits assumed): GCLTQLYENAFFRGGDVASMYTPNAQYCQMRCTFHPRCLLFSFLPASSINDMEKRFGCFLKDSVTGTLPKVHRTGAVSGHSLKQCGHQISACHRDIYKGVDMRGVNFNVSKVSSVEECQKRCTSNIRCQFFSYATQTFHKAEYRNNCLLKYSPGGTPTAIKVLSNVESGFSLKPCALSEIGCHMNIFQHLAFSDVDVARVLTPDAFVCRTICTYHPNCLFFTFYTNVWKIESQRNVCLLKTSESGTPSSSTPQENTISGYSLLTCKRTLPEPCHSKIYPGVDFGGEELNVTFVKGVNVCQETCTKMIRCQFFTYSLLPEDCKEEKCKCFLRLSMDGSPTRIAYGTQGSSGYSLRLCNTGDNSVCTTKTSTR
Turning to `[2H]C([2H])([2H])n1ncc(NC(=O)C2CC2)c1-c1cnn(C(CCOC(F)F)c2ccc(-c3c(-n4cc(Cl)nn4)ccc(Cl)c3F)c[n+]2[O-])c1` (single isomer, unassigned) [Example P810], the IC50 is around 383 nM.
With `Cc1ncn(-c2cnn(C(CCOC(F)F)c3ccc(-c4c(-n5cc(OC(F)F)nn5)ccc(Cl)c4F)c[n+]3[O-])c2)n1` (single isomer, unassigned) [Example P825] the figure was 588 nM; with `Cc1nccn1-c1cnn(C(CCOC(F)F)c2ccc(-c3c(-n4cc(OC(F)F)nn4)ccc(Cl)c3F)c[n+]2[O-])c1` (single isomer, unassigned) [Example P826], 303 nM.
Regarding `Nc1cnc(-c2cnn(C(CCOC(F)F)c3ccc(-c4c(-n5cc(C(F)(F)F)nn5)ccc(Cl)c4F)c[n+]3[O-])c2)c(F)n1` (single isomer, unassigned) [Example P833], the IC50 was 62.7 nM.
With `[O-][n+]1cc(-c2c(-n3cc(C(F)(F)F)nn3)ccc(Cl)c2F)ccc1C(Cc1ccn(C(F)F)n1)n1cc(-c2ncnn2C(F)F)cn1` (single isomer, unassigned) [Example P837] the figure was 48.3 nM; with `CC(=O)Nc1cnc(C(F)(F)F)cc1-c1cnn(C(CC2CC2)c2ccc(-c3c(-n4cnnn4)ccc(Cl)c3F)c[n+]2[O-])c1` (single isomer, unassigned) [Example P842], 346 nM; with `[O-][n+]1cc(-c2c(-n3cnnn3)ccc(Cl)c2F)ccc1C(CCOC(F)F)n1cc(-c2c(Cl)ncn2C(F)F)cn1` (single isomer, unassigned) [Example P843], around 71 nM.
In the case of `[O-][n+]1cc(F)c(-c2cnn(C(CC3CC3)c3ccc(-c4c(-n5cnnn5)ccc(Cl)c4F)c[n+]3[O-])c2)c(Cl)c1` (single isomer, unassigned) [Example P862], the IC50 worked out at 148 nM.
`[2H]C([2H])([2H])OC([2H])([2H])CC(c1ccc(-c2c(-n3cc(C(F)(F)F)nn3)ccc(Cl)c2F)c[n+]1[O-])n1cc(-c2ncnn2C)cn1` (single isomer, unassigned) [Example P864]: the IC50 was 549 nM.
Take `NC(=O)c1ccc(-c2cnn(C(CCOC(F)F)c3ccc(-c4c(-n5cc(Cl)nn5)ccc(Cl)c4F)c[n+]3[O-])c2)cc1F` (single isomer, unassigned) [Example P875]: the half-inhibitory concentration (IC50) was 2.7 nM.
With `CCC(c1cc(OC)c(-c2cc(Cl)ccc2-n2cc(C(F)(F)F)nn2)c[n+]1[O-])n1cc(-c2ccc(C(N)=O)c(F)c2)cn1` (single isomer, unassigned) [Example P877] the figure was 220 nM.
With `CCC(c1cc(OC)c(-c2cc(Cl)ccc2-n2cc(C(F)(F)F)nn2)c[n+]1[O-])n1cc(-c2ccc(C(N)=O)c(F)c2)cn1` (single isomer, unassigned) [Example P878] the figure was 2.7 nM; with `O=C(O)c1ccc(-c2cnn(C(CCOC(F)F)c3ccc(-c4c(-n5cc(Cl)nn5)ccc(Cl)c4F)c[n+]3[O-])c2)cc1F` (single isomer, unassigned) [Example P881], 7.3 nM.
With `CCC(c1ccc(-c2c(-n3cc(C(F)(F)F)nn3)ccc(Cl)c2F)c[n+]1[O-])n1cc(-c2ccc(C(N)=O)c(F)c2)cn1` (single isomer, unassigned) [Example P883], the IC50 was determined as 103 nM.
The figure for `O=C(O)c1ccc(-c2cnn(C(CCOC(F)F)c3ccc(-c4c(-n5cc(C(F)(F)F)nn5)ccc(Cl)c4F)c[n+]3[O-])c2)cc1F` (single isomer, unassigned) [Example P887] is 5.8 nM; for `NC(=O)c1ccc(-c2cnn(C(CC3CC3)c3ccc(-c4c(-n5cc(C(F)(F)F)nn5)ccc(Cl)c4F)c[n+]3[O-])c2)cc1F` (single isomer, unassigned) [Example P889] it is 77.8 nM.
Consider `NC(=O)c1ccc(-c2cnn(C(Cc3ccn(C(F)F)n3)c3ccc(-c4c(-n5cc(C(F)(F)F)nn5)ccc(Cl)c4F)c[n+]3[O-])c2)cc1F` (single isomer, unassigned) [Example P891], for which the 50% inhibitory concentration (IC50) came out at 536 nM.
The figure for `NC(=O)c1ccc(-c2cnn(C(Cc3ccn(C(F)F)n3)c3ccc(-c4c(-n5cc(Cl)nn5)ccc(Cl)c4F)c[n+]3[O-])c2)cc1F` (single isomer, unassigned) [Example P893] is 20.5 nM; for `NC(=O)c1ccc(-c2cnn(C(CCOC(F)F)c3ccc(-c4c(-n5cc(Cl)nn5)ccc(Cl)c4F)c[n+]3[O-])c2)cc1` (single isomer, unassigned) [Example P895] it is 702 nM.
As to `NC(=O)c1ccc(-c2cnn(C(CCOC(F)F)c3ccc(-c4c(-n5cc(Cl)nn5)ccc(Cl)c4F)c[n+]3[O-])c2)cc1` (single isomer, unassigned) [Example P896], the IC50 came to 0.2 nM.
As for `O=C(O)c1ccc(-c2cnn(C(Cc3ccn(C(F)F)n3)c3ccc(-c4c(-n5cc(Cl)nn5)ccc(Cl)c4F)c[n+]3[O-])c2)cc1` (single isomer, unassigned) [Example P898], the IC50 came to 2.5 nM.
The figure for `O=C(O)c1ccc(-c2cnn(C(Cc3ccn(C(F)F)n3)c3ccc(-c4c(-n5cc(C(F)(F)F)nn5)ccc(Cl)c4F)c[n+]3[O-])c2)cc1` (single isomer, unassigned) [Example P900] is 2.2 nM; for `NC(=O)c1ccc(-c2cnn(C(Cc3ccn(C(F)F)n3)c3ccc(-c4cc(Cl)ccc4-n4cc(C(F)(F)F)nn4)c[n+]3[O-])c2)cc1F` (single isomer, unassigned) [Example P905] it is 889 nM; for `NC(=O)c1ccc(-c2cnn(C(Cc3ccn(C(F)F)n3)c3ccc(-c4c(-n5cc(C(F)(F)F)nn5)ccc(Cl)c4F)c[n+]3[O-])c2)cc1F` (single isomer, unassigned) [Example P906] it is 6.5 nM.
The figure for `NC(=O)c1ccc(-c2cnn(C(Cc3ccn(C(F)F)n3)c3ccc(-c4c(-n5cc(C(F)(F)F)nn5)ccc(Cl)c4F)c[n+]3[O-])c2)cc1` (single isomer, unassigned) [Example P907] is 70.4 nM; for `NC(=O)c1ccc(-c2cnn(C(Cc3ccn(C(F)F)n3)c3ccc(-c4c(-n5cc(C(F)(F)F)nn5)ccc(Cl)c4F)c[n+]3[O-])c2)cc1` (single isomer, unassigned) [Example P908] it is 0.3 nM; for `NC(=O)c1ccc(-c2cnn(C(Cc3ccn(C(F)F)n3)c3ccc(-c4c(-n5cc(Cl)nn5)ccc(Cl)c4F)c[n+]3[O-])c2)cc1` (single isomer, unassigned) [Example P910] it is 30.7 nM.
With `NC(=O)c1ccc(-c2cnn(C(Cc3ccn(C(F)F)n3)c3ccc(-c4c(-n5cc(Cl)nn5)ccc(Cl)c4F)c[n+]3[O-])c2)cc1` (single isomer, unassigned) [Example P911] the figure was 0.2 nM; with `[2H]C([2H])([2H])OC([2H])([2H])CC(c1ccc(-c2c(-n3cc(C(F)(F)F)nn3)ccc(Cl)c2F)c[n+]1[O-])n1cc(-c2ccc(C(N)=O)c(F)c2)cn1` (single isomer, unassigned) [Example P913], 7.2 nM.
For the molecule `COc1cc(C(CC2CC2)n2cc(-c3ncnn3C(F)F)cn2)[n+]([O-])cc1-c1cc(Cl)ccc1-n1cnnn1` (single isomer, unassigned) [Example P917], the IC50 came to 3.9 nM.
Turning to `COc1cc(C(CC2CC2)n2cc(-c3ncnn3C)cn2)[n+]([O-])cc1-c1cc(Cl)ccc1-n1cc(C(F)(F)F)nn1` (single isomer, unassigned) [Example P918], the half-maximal inhibitory concentration (IC50) worked out at 29.5 nM.
The figure for `CCC(c1cc(OC)c(-c2cc(Cl)ccc2-n2cc(C(F)(F)F)nn2)c[n+]1[O-])n1cc(-c2ncnn2C)cn1` (single isomer, unassigned) [Example P922] is 54.9 nM.
With `CCC(c1cc(OC)c(-c2cc(Cl)ccc2-n2cc(C(F)(F)F)nn2)c[n+]1[O-])n1cc(-c2ncnn2C(F)F)cn1` (single isomer, unassigned) [Example P923] the figure was 38.5 nM; with `NC(=O)c1ccc(-c2cnn(C(CCOC(F)F)c3ccc(-c4c(-n5cnnn5)ccc(Cl)c4F)c[n+]3[O-])c2)cc1F` (single isomer, unassigned) [Example P928], 0.9 nM; with `NC(=O)c1ccc(-c2cnn(C(CCOC(F)F)c3ccc(-c4c(-n5cnnn5)ccc(Cl)c4F)c[n+]3[O-])c2)cc1F` (single isomer, unassigned) [Example P929], 5.8 nM.
The figure for `O=C(O)c1ccc(-c2cnn(C(Cc3ccn(C(F)F)n3)c3ccc(-c4c(-n5cc(C(F)(F)F)nn5)ccc(Cl)c4F)c[n+]3[O-])c2)cc1F` (single isomer, unassigned) [Example P931] is 2.5 nM; for `NC(=O)c1ccc(-c2cnn(C(Cc3ccn(C(F)F)n3)c3ccc(-c4c(-n5cnnn5)ccc(Cl)c4F)c[n+]3[O-])c2)cc1F` (single isomer, unassigned) [Example P932] it is 27 nM; for `NC(=O)c1ccc(-c2cnn(C(Cc3ccn(C(F)F)n3)c3ccc(-c4c(-n5cnnn5)ccc(Cl)c4F)c[n+]3[O-])c2)cc1F` (single isomer, unassigned) [Example P933] it is 0.4 nM.
Consider `NC(=O)c1ccc(-c2cnn(C(CN3CCCC3=O)c3ccc(-c4c(-n5cc(C(F)(F)F)nn5)ccc(Cl)c4F)c[n+]3[O-])c2)cc1F` (single isomer, unassigned) [Example P936], for which the IC50 worked out at 397 nM.
With `NC(=O)c1ccc(-c2cnn(C(CN3CCCC3=O)c3ccc(-c4c(-n5cc(C(F)(F)F)nn5)ccc(Cl)c4F)c[n+]3[O-])c2)cc1F` (single isomer, unassigned) [Example P937] the figure was 2.7 nM; with `COc1cc(C(CC2CC2)n2cc(-c3ncnn3C(F)F)cn2)[n+]([O-])cc1-c1cc(Cl)ccc1-n1cc(C(F)(F)F)nn1` (single isomer, unassigned) [Example P940], 14.2 nM; with `NC(=O)c1ccc(-c2cnn(C(Cc3nccs3)c3ccc(-c4c(-n5cc(C(F)(F)F)nn5)ccc(Cl)c4F)c[n+]3[O-])c2)cc1F` (single isomer, unassigned) [Example P942], 249 nM.
For the molecule `NC(=O)c1ccc(-c2cnn(C(Cc3nccs3)c3ccc(-c4c(-n5cc(C(F)(F)F)nn5)ccc(Cl)c4F)c[n+]3[O-])c2)cc1F` (single isomer, unassigned) [Example P943], the IC50 is 6.2 nM.
